Experimental findings from PubChem BioAssay AID602267 (Broad Institute, 2012) are described below.

For this assay, the target named is Golgi-associated PDZ and coiled-coil motif-containing protein (Homo sapiens) (UniProt Q9HD26). The assay is described as follows: blockers of CAL PDZ ligand groove binding – biochemical, fluorescence polarization, untagged CAL PDZ, cherry-pick, dose response (AID 602267). The settings on record: purified CAL PDZ, TMR-peptide fluorescence polarization, 1 h. A general note: Fluorescence polarisation rises when a labelled molecule tumbles more slowly, as on binding a larger partner.

Structures are written as SMILES. Calls of active or inactive are those of the source.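 How the source made its calls: active means signal falls with dose and the fitted half-maximal concentration is at or below twice the top valid tested dose; inconclusive means flat curve with 30 to 70% inhibition, or poor fit; inactive means wrong direction, flat within 30%, or potency beyond limit.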

Regarding `Cc1cccc(C(=O)Nc2ccc(C(=O)/C=C/c3ccncc3)cc2)c1`, the “activity change, negative = inhibition” value (at 50 µM (top of the series)) is “inactive”.
Regarding `COc1ccc(-n2c(=S)[nH]c3c(sc(=S)n3-c3ccccc3)c2=O)c(OC)c1`, the “activity change, negative = inhibition” value (at 50 µM (top of the series)) was “inactive”.
With `O=C(c1c(Cl)cccc1Cl)N1CCCCCC1`, the “activity change, negative = inhibition” value (at 50 µM (top of the series)) is “inactive”.
On the same count and under the same terms, to `CC(C)OCCCNC(=O)C1CC(=O)N(CCc2ccc(F)cc2)C1` (centres undefined) belongs “inactive”; to `CCCCNC(=O)c1ccc(-n2c(=S)[nH]c3ccccc3c2=O)cc1`, “inactive”.
Still for that read-out and setting: the value for `CS(=O)(=O)c1ccc2nc(NC(=O)CN3C(=O)C4CC=CCC4C3=O)sc2c1` (centres undefined) was “inactive”; that for `CCOc1ccc(N(CC(=O)N2CCN(Cc3ccccc3)CC2)S(C)(=O)=O)cc1` was “inactive”; that for `CCOC(=O)c1ccc(NC(=S)N2CCCC(C(=O)N3CCCC3)C2)cc1` (centres undefined) was “inactive”.
Consider `O=C(CNCc1ccccc1)Nc1ccc(F)cc1`, for which, for the setting “at 50 µM (top of the series)”, the “activity change, negative = inhibition” value was “inactive”.
With `CN(C)/N=C1\CCS(=O)(=O)c2sccc21`, the “activity change, negative = inhibition” value (at 50 µM (top of the series)) is “inactive”.
In the case of `CCCCNC(=S)NNc1c(Cl)cc(Cl)cc1Cl`, where the note is “at 50 µM (top of the series)”, the “activity change, negative = inhibition” value was “inactive”.
With `CCOc1ccc(C(=O)NC2CC3CCCC(C2)N3Cc2ccccc2)cc1` (centres undefined), the “activity change, negative = inhibition” value (at 50 µM (top of the series)) was “inactive”.
For the compound `CC(C)CN1CCN(Cc2cccc3c2OCO3)CC1CCO` (centres undefined), the “activity change, negative = inhibition” value (at 50 µM (top of the series)) was “inactive”.
In the case of `O=[N+]([O-])c1ccccc1S(=O)(=O)NC1CCCCCCC1`, the “activity change, negative = inhibition” value (at 50 µM (top of the series)) is “inactive”.
As for `NS(=O)(=O)c1ccc(N2N=C(c3ccccc3)CC2c2ccccc2)cc1` (centres undefined), the “activity change, negative = inhibition” value (at 50 µM (top of the series)) was “inactive”.
As for `COC(=O)c1ccc(CNC(=O)COC(=O)c2cc(Cl)nc(Cl)c2)cc1`, the “activity change, negative = inhibition” value (at 50 µM (top of the series)) was “inactive”.
`CC(C)=Cc1oc2ccc([N+](=O)[O-])cc2c1N1CCOCC1`: the “activity change, negative = inhibition” value (at 50 µM (top of the series)) is “inactive”.
As for `CSc1ccc(CNCCCSc2ncccn2)cc1`, the “activity change, negative = inhibition” value (at 50 µM (top of the series)) was “inactive”.
Regarding `S=C(NCCc1ccccc1)N1CCn2cccc2C1c1cccnc1` (centres undefined), where the note is “at 50 µM (top of the series)”, the “activity change, negative = inhibition” value is “inactive”.
Turning to `O=C(Nc1ccc(Cl)cc1)c1ccc(CN2CCc3ccccc3C2)cc1`, the “activity change, negative = inhibition” value (at 50 µM (top of the series)) was “inactive”.
As for `NC(=O)c1cc2ccccc2o/c1=N\NC(=O)c1ccncc1`, where the note is “at 50 µM (top of the series)”, the “activity change, negative = inhibition” value was “inactive”.
On to `CCOc1ccccc1N(CC(=O)Nc1cccc2ccccc12)S(C)(=O)=O`, for which the “activity change, negative = inhibition” value (at 50 µM (top of the series)) was “inactive”.
In the case of `CCCn1cnc2c(SCCc3ccccc3)nc(N)nc21`, the “activity change, negative = inhibition” value (at 50 µM (top of the series)) is “inactive”.
With `Nc1nc2ccccc2cc1S(=O)(=O)c1ccccc1`, the “activity change, negative = inhibition” value (at 50 µM (top of the series)) was “inactive”.
Consider `COC(=O)CN1C(=O)C(O)=C(C(C)=O)C1c1ccc([N+](=O)[O-])cc1` (centres undefined), for which the “activity change, negative = inhibition” value (at 50 µM (top of the series)) was “inactive”.
Regarding `CC(=O)NC(Cc1ccccc1)C(C)=O` (centres undefined), where the note is “at 50 µM (top of the series)”, the “activity change, negative = inhibition” value is “inactive”.
Turning to `Cc1ccc2cc(C#N)c(N3CCCN(S(=O)(=O)c4ccccc4)CC3)nc2c1`, under “at 50 µM (top of the series)”, the “activity change, negative = inhibition” value was “inactive”.
The same measure, in the same setting: to `CCN(CC)CCn1c(SCC(=O)NCc2ccccc2)nc2c(sc3ccccc32)c1=O` belongs “inactive”; to `O=C(O)c1ccc(S(=O)(=O)c2ccc3c(c2)C(=O)N(c2ccccc2[N+](=O)[O-])C3=O)cc1`, “inactive”.
Same read-out and setting: to `Cn1c(=O)c2c(nc(-c3ccc(N(CCCl)CCCl)cc3)n2C)n(C)c1=O` belongs “inactive”; to `CC12CCC(C(=O)N(CCCN3CCN(Cc4ccccc4)CC3)C1=O)C2(C)C` (centres undefined), “inactive”.
The same measure, in the same setting: the value for `CCCn1nnnc1NCc1cc(Br)ccc1OC` was “inactive”; that for `Cc1ccc(CN2CCN(Cc3nc4ccccc4nc3C)CC2CCO)cc1` (centres undefined) was “inactive”; that for `Cc1c(C)c2cc3c4c(oc3c(C)c2oc1=O)CCCC4` was “inactive”.
In the case of `CN(C)S(=O)(=O)c1ccc(Cl)c(NC(=O)CSc2nnnn2-c2ccc(O)cc2)c1`, the “activity change, negative = inhibition” value (at 50 µM (top of the series)) is “inactive”.
For `O=C(N/N=C/c1ccc(OCc2ccccc2)cc1)c1ccc(O)cc1`, the “activity change, negative = inhibition” value (at 50 µM (top of the series)) is “inactive”.
Still for that read-out and setting: the value for `COc1ccc(CNCCc2c[nH]c3ccccc23)c(OC)c1OC` was “inactive”; that for `Cc1cccc(N(Cc2cc(=O)[nH]c3ccccc23)C(=O)C(C)C)c1` was “inactive”; that for `O=C(CSc1nccc(=O)[nH]1)Nc1ccc(Oc2ccccc2)cc1` was “inactive”.
`COc1ccc(Br)c(C(=O)NC2CCCC2)c1`: the “activity change, negative = inhibition” value (at 50 µM (top of the series)) was “inactive”.
Consider `C(=C/c1nccc2c1[nH]c1ccccc12)/c1ccc2c(c1)OCO2`, for which the “activity change, negative = inhibition” value (at 50 µM (top of the series)) was “inactive”.
In the case of `COCCN(C(=S)Nc1ccccc1OC)C1CCN(C(C)C)CC1`, the “activity change, negative = inhibition” value (at 50 µM (top of the series)) is “inactive”.
In the case of `CCOc1ccc(C(=O)NCC(=O)N2CCC(C)CC2)cc1OCC`, the “activity change, negative = inhibition” value (at 50 µM (top of the series)) was “inactive”.
The same measure, in the same setting: the value for `O=C(Nc1ccc([N+](=O)[O-])cc1)Nc1cnccn1` was “inactive”; that for `CCC(=O)N1CCC(C(N)=O)(N2CCCCC2)CC1` was “inactive”; that for `CCN1C(=O)CS/C1=N\S(=O)(=O)c1ccc(Cl)cc1` was “inactive”.
Consider `COc1ccc(NC(=O)c2ccc3c(c2)NC(=O)CO3)cc1OC`, for which the “activity change, negative = inhibition” value (at 50 µM (top of the series)) was “inactive”.
Take `COc1ccc(S(=O)(=O)N2CCOCC2)cc1NC(=O)CN1CCCCCC1`: the “activity change, negative = inhibition” value (at 50 µM (top of the series)) is “inactive”.
Turning to `CO[C@H]1O[C@H](C)[C@@H](O)C[C@H]1NC(=O)OCc1ccccc1`, the “activity change, negative = inhibition” value (at 50 µM (top of the series)) is “inactive”.
Regarding `O=C(COC(=O)c1ccc(Cl)nc1)Nc1ccc(N2CCCCC2)cc1`, for the setting “at 50 µM (top of the series)”, the “activity change, negative = inhibition” value is “inactive”.
With `O=S(=O)(/N=C(/Nc1ccc(Cl)c(S(=O)(=O)N2CCOCC2)c1)c1ccc(F)cc1)c1ccccc1`, where the note is “at 50 µM (top of the series)”, the “activity change, negative = inhibition” value is “inactive”.
Consider `COn1c(SCc2ccccc2)nc2ccccc2c1=O`, for which the “activity change, negative = inhibition” value (at 50 µM (top of the series)) was “inactive”.
The same measure, in the same setting: the value for `O=C(NCCc1cnc[nH]1)c1cccs1` was “inactive”; that for `CSC1=NP(=S)(SC)N2CCCC2=C1C#N` (centres undefined) was “inactive”; that for `CCNC(=S)N(CCN(CC)CC)Cc1cc2cc3c(cc2[nH]c1=O)OCCO3` was “inactive”.
Turning to `Cc1ccc(C)c(N(CC(=O)NC(C)(C)C)C(=O)CCC(=O)Nc2nccs2)c1`, the “activity change, negative = inhibition” value (at 50 µM (top of the series)) is “inactive”.
With `CN(C)CCNC(=O)COc1cccc2c1OC(C)(C)C2`, the “activity change, negative = inhibition” value (at 50 µM (top of the series)) is “inactive”.
As for `O=C(c1ccccc1)C(c1ccccc1)c1ccccc1`, for the setting “at 16 µM (top of the series)”, the “activity change, negative = inhibition” value is “inactive”.
As for `CCCCN(CCCC)CCNC(=O)c1ccc2nc(-c3ccccc3NC(C)=O)c(=O)[nH]c2c1`, the “activity change, negative = inhibition” value (at 50 µM (top of the series)) is “inactive”.
On to `CCOC(=O)c1c(CN2CCOCC2)oc2ccc(OC(C)=O)cc12`, for which the “activity change, negative = inhibition” value (at 50 µM (top of the series)) is “inactive”.
Same read-out and setting: to `Cc1ccc2nc(-c3cccc(Br)c3)cc(C(=O)NC3=NCCS3)c2c1` belongs “inactive”; to `CC(=O)N1CCN(c2ccc(NC(=O)c3cccc(Cl)c3Cl)cc2)CC1`, “inactive”; to `O=C(NCc1ccccc1)c1cc2ccc(O)cc2oc1=O`, “inactive”.
For the compound `CCN(CC)Cc1c(O)ccc2c1O/C(=C\C=C\c1ccccc1)C2=O`, the “activity change, negative = inhibition” value (at 50 µM (top of the series)) was “inactive”.
`O=C(c1ccc(F)cc1Cl)N1CCC2(CC1)OCCO2`: the “activity change, negative = inhibition” value (at 50 µM (top of the series)) is “inactive”.
As to `CCC(=O)Nc1ccc(S(=O)(=O)NCc2ccco2)cc1`, the “activity change, negative = inhibition” value (at 50 µM (top of the series)) was “inactive”.
As for `COC(=O)N/N=C/c1sc(N2CCCCC2)nc1-c1cccs1`, for the setting “at 50 µM (top of the series)”, the “activity change, negative = inhibition” value is “inactive”.
The same measure, in the same setting: to `O=C(c1ccccc1)C(CCc1ccccn1)CCc1ccccn1` belongs “inactive”; to `CN(C(=O)CC1C(=O)NCCN1CC(c1ccccc1)c1ccccc1)C(C1CC1)C1CC1` (centres undefined), “inactive”.
Still for that read-out and setting: the value for `Cc1cc(SC2CCOC2=O)nc2ccccc12` (centres undefined) was “inactive”.
For `Cc1cc(/C=C2\SC(=O)N(C)C2=O)c(C)n1-c1ccc(O)cc1`, the “activity change, negative = inhibition” value (at 50 µM (top of the series)) was “inactive”.
Consider `COc1ccc(N2CCN(C3CCCN(Cc4ccc(F)cc4)C3)CC2)cc1` (centres undefined), for which the “activity change, negative = inhibition” value (at 50 µM (top of the series)) is “inactive”.
Consider `COc1ccc(OC)c(S(=O)(=O)NCCCn2ccnc2)c1`, for which the “activity change, negative = inhibition” value (at 50 µM (top of the series)) was “inactive”.
For the compound `COC(=O)c1ccccc1NC(=O)n1cc(C)cn1`, for the setting “at 50 µM (top of the series)”, the “activity change, negative = inhibition” value was “inactive”.
For `COc1ccc2ccccc2c1CN(C)Cc1ccccc1`, the “activity change, negative = inhibition” value (at 50 µM (top of the series)) is “inactive”.
Take `O=C(OCC(=O)N1CCc2ccccc2C1)c1cccnc1Cl`: where the note is “at 50 µM (top of the series)”, the “activity change, negative = inhibition” value is “inactive”.
The same measure, in the same setting: the value for `COc1ccc(/C=C/C(=O)Nc2ccc3nc4n(c(=O)c3c2)CCCC4)cc1OC` was “inactive”; that for `Cc1cccc(-n2nc(C)c3c2NC2=C(C(=O)CCC2)C3c2ccccn2)c1` (centres undefined) was “inactive”.
Same read-out and setting: the value for `CCCCC(CCC(=O)Nc1nccs1)C(=O)O` (centres undefined) was “inactive”; that for `COc1cccc(-c2cccc(NC(=O)C3CCN(Cc4ccc(CO)o4)CC3)c2)c1` was “inactive”; that for `O=C(COC(=O)c1ccccc1C(=O)N1CCN(c2ccccc2)CC1)NCc1ccccc1` was “inactive”.
Take `Cc1cc(C)c2nc(-c3ccncc3)cc(C(=O)N3CCN(Cc4ccccc4Cl)CC3)c2c1`: under “at 50 µM (top of the series)”, the “activity change, negative = inhibition” value was “inactive”.
Turning to `O=c1[nH]c(CN2CC=C(c3ccccc3)CC2)nc2scc(-c3ccccc3)c12`, the “activity change, negative = inhibition” value (at 16 µM (top of the series)) was “inactive”.
For the compound `CCOc1ccc(C2=Nn3c(nnc3-c3ccco3)SC2)cc1`, the “activity change, negative = inhibition” value (at 50 µM (top of the series)) was “inactive”.
